One may read the EC50 as the concentration needed to bring the measured effect to its halfway point. Usually IC50 stands for the concentration needed to halve the response being measured. Higher therefore signals weaker potency in that assay. A word on the CC50: it is the concentration at which the toxic effect on the cells reaches its halfway point. A low value points to harm at low concentration.

A short description of data set [1]: Therapeutic index expressed as the ratio of CC50 and EC50. Type of data set: cell-based. The following applies: human, CCRF-CEM cells; read-out: Therapeutic index.
Data set [2] relates to CCRF-CEM. Nature of the data set: Anti HIV-1 activity expressed as the concentration required to protect of HIV-1 infected CEM cells. It counts as functional, cell-based. The following applies: Homo sapiens.
Data set [3] has as its target T1, Human immunodeficiency virus type 1 integrase (Human immunodeficiency virus 1, UniProt Q7ZJM1).
The target in data set [4] is T1, Human immunodeficiency virus type 1 integrase. The source holds these as a separate data set.
Description: Inhibition of HIV-1 integrase catalytic activity
The subject of data set [5] is CCRF-CEM. In words: Cytotoxic concentration against uninfected CEM cells. It counts as functional. Particulars: Homo sapiens.
The subject of data set [6] is CCRF-CEM. In words: Maximum protection of CEM cells by the compound against HIV-1 at a dose of 0.2 uM. Type of data set: functional, Homo sapiens.
The subject of data set [7] is CCRF-CEM. In words: Maximum protection of CEM cells by the compound against HIV-1 at a dose of 2 uM; No protection. It counts as functional, cell-based. The following applies: Homo sapiens.
A short description of data set [8]: Therapeutic index expressed as the ratio of CC50 and EC50; No therapeutic benifit reached. Type of data set: cell-based. The following applies: human, ccrf-cem.
Data set [9] deals with CCRF-CEM. Nature of the data set: Maximum protection of CEM cells by the compound against HIV-1 at a dose of 20 uM. It counts as functional, Homo sapiens.
In data set [10] the test system is CCRF-CEM. Nature of the data set: Maximum protection of CEM cells by the compound against HIV-1; No protection. Type of data set: functional, cell-based. The following applies: Homo sapiens.
The target of data set [11] is T1, Human immunodeficiency virus type 1 integrase. Nature of the data set: Evaluated for inhibition of HIV-1 integrase catalytic activity in terms of inhibition of 3'-processing. It counts as functional.
The test system of data set [12] is CCRF-CEM. Nature of the data set: Maximum protection of CEM cells by the compound against HIV-1 at a dose of 2 uM. It counts as functional, Homo sapiens.
For data set [13], the system named is CCRF-CEM. Nature of the data set: Maximum protection of CEM cells by the compound against HIV-1 at a dose of 63 uM. Type of data set: functional, Homo sapiens.

T1 sequence (Q7ZJM1 whole entry): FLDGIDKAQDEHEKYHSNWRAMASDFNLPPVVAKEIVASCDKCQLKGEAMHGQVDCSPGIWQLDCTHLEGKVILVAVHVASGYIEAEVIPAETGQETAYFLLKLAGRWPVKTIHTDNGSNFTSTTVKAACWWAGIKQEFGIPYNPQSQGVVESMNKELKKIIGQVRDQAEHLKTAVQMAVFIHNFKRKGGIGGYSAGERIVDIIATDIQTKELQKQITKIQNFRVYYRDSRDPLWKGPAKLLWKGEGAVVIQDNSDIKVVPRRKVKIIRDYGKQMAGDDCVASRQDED

For `O=C(O)C(=O)/C=C(\O)c1cccc(Cc2ccccc2F)c1`, the selectivity ratio in [1] worked out at 3110. In the data set on CCRF-CEM [2], this compound registered an EC50 of 0.02 µM. In addition, the IC50 in data set [3] was found to be 2.5 µM; in [4] it was 0.4 µM. The CC50 with CCRF-CEM [5] was found to be 62 µM. Also, in the data set with CCRF-CEM [6], the Max protection was found to be 98%.

Turning to `O=C(/C=C(\O)c1cccc(Cc2ccccc2F)c1)C(=O)NCCNC(=O)C(=O)/C=C(\O)c1cccc(Cc2ccccc2F)c1`, the Max protection result with CCRF-CEM [7] was “No protection”. Moreover, the EC50 in the data set with CCRF-CEM [2] was greater than 5 µM. Also, the Therapeutic index result in data set [8] is given as “No therapeutic benefit”. Moreover, the IC50 came to 5.8 µM in [3] and 0.2 µM in [4]. Moreover, the half-maximal cytotoxic concentration (CC50) with CCRF-CEM [5] was determined as 5 µM.

In the case of `O=C(/C=C(\O)c1cccc(Cc2ccccc2F)c1)C(=O)NCCCCCCNC(=O)C(=O)/C=C(\O)c1cccc(Cc2ccccc2F)c1`, in [1], the selectivity ratio was 8. For the same compound, the EC50 with CCRF-CEM [2] is 16 µM. Further, the IC50 came out at 32 µM in [3] and 2.7 µM in data set [4]. The Max protection with CCRF-CEM [9] amounted to 86%. In addition, it took 124 µM to reach half-maximal cytotoxicity with CCRF-CEM [5] (CC50).

As for `O=C(O)C(=O)/C=C(\O)c1cccc(OCc2cccc(COc3cccc(/C(O)=C/C(=O)C(=O)O)c3)c2)c1`, the Max protection result with CCRF-CEM [10] is “No protection”. The same compound yielded an EC50 in the data set with CCRF-CEM [2] greater than 200 µM. Moreover, the IC50 in data set [3] came to 7.3 µM. This compound also showed a CC50 in the data set on CCRF-CEM [5] greater than 200 µM.

Take `O=C(/C=C(\O)c1cccc(Cc2ccccc2F)c1)C(=O)NCCCNC(=O)C(=O)/C=C(\O)c1cccc(Cc2ccccc2F)c1`: the Max protection entry with CCRF-CEM [10] was “No protection”. The compound also gave a concentration giving a half-maximal response (EC50) in the data set on CCRF-CEM [2] greater than 9 µM. In addition, the Therapeutic index entry in [8] is given as “No therapeutic benefit”. The concentration for half-maximal inhibition (IC50) in [3] was 5.3 µM; in data set [4] it was 0.2 µM. The compound also displayed a CC50 in the data set on CCRF-CEM [5] of 9 µM.

As for `O=C(/C=C(\O)c1cccc(Cc2ccccc2F)c1)C(=O)NCCCCCNC(=O)C(=O)/C=C(\O)c1cccc(Cc2ccccc2F)c1`, the Max protection entry in the data set on CCRF-CEM [10] was “No protection”. The same compound displayed an EC50 in the data set on CCRF-CEM [2] greater than 12 µM. Further, the Therapeutic index result in data set [8] was “No therapeutic benefit”. The 50% inhibitory concentration (IC50) in [3] turned out to be 4.8 µM; in data set [4], 0.7 µM. In the data set on CCRF-CEM [5], this compound returned a cytotoxic concentration (CC50) of 12 µM.

On to `O=C(/C=C(\O)c1cccc(Cc2ccccc2F)c1)C(=O)N1CCN(C(=O)C(=O)/C=C(\O)c2cccc(Cc3ccccc3F)c2)CC1`, for which the selectivity ratio in data set [1] was 14. Moreover, the EC50 in the data set on CCRF-CEM [2] was found to be 0.8 µM. For the same compound, the 50% inhibitory concentration (IC50) in data set [11] was 2.5 µM; in data set [4], 0.3 µM. In the data set with CCRF-CEM [12], this compound showed a Max protection of 100%. The same compound yielded a CC50 in the data set on CCRF-CEM [5] of 11 µM.

For the compound `O=C(O)C(=O)/C=C(\O)c1cccc(OCc2ccc(COc3cccc(/C(O)=C/C(=O)C(=O)O)c3)cc2)c1`, in the data set with CCRF-CEM [10], the Max protection entry is “No protection”. Further, the EC50 in the data set with CCRF-CEM [2] is greater than 200 µM. Moreover, the Therapeutic index entry in data set [8] was “No therapeutic benefit”. Also, the results for the IC50 in data set [3] and in data set [4] were 1.7 µM and 1.9 µM, respectively. In addition, in the data set with CCRF-CEM [5], the CC50 was greater than 200 µM.

As for `O=C(O)C(=O)/C=C(\O)c1cccc(OCc2ccccc2COc2cccc(/C(O)=C/C(=O)C(=O)O)c2)c1`, the EC50 with CCRF-CEM [2] worked out at 39 µM. In the data set with CCRF-CEM [13], the Max protection is on record as 97%. This compound also gave a CC50 in the data set with CCRF-CEM [5] greater than 200 µM.

`O=C(O)C(=O)/C=C(\O)c1cccc(C(c2cccc(/C(O)=C/C(=O)C(=O)O)c2)c2ccccc2F)c1` (configuration not stated) registered an EC50 in the data set on CCRF-CEM [2] of 17 µM. In addition, the Max protection in the data set on CCRF-CEM [9] was 88%. Besides, the CC50 in the data set on CCRF-CEM [5] turned out to be 81 µM.

The record behind these values is ChEMBL document CHEMBL1148310, “Rational design and synthesis of novel dimeric diketoacid-containing inhibitors of HIV-1 integrase: implication for binding to two metal ions on the active site of integrase” (J Med Chem, 2004).
